Assay results: patent publication US20140329681A1, “METHOD FOR CONTROLLING WEEDS IN SUGAR CANE FIELD” (SUMITOMO CHEMICAL COMPANY, LIMITED, priority 2011, published 2014)

Key:
Amaranthus retroflexus = assay: Pot test, herbicide sprayed on the soil surface after planting one-node stem cuttings: herbicidal efficacy; type: in vivo; conditions: Example 5; cuttings treated with strobilurin fungicides (kresoxim-methyl, azoxystrobin etc.); soil surface spray on day of planting; four weeks after application
Procedure: (§1) Stem cuttings of sugar cane, 30 cm to 40 cm long, are placed in wet soil to stimulate germination. Stem cuttings on which a bud grows to about 1 cm long are selected and the stem cuttings are cut to have one node and a length of 3 cm. Plastic pots are filled with soil and Amaranthus retroflexus is seeded therein. The stem cuttings of sugar cane are planted in the soil in the pots at a depth of 2 cm. […] The test pots are then placed in a greenhouse.
(§2) The herbicidal efficacy and phytotoxicity are determined four weeks after the application of the herbicides.
as §1, with “3 cm. The stem cuttings are treated with clothianidin, thiamethoxam, imidacloprid, dinotefuran, nitenpyram, acetamiprid, or thiacloprid. Plastic pots” for “3 cm. Plastic pots”, “sugar cane treated with the pesticides are planted” for “sugar cane are planted”
(§3) Stem cuttings of sugar cane, 30 cm to 40 cm long, are placed in wet soil to stimulate germination. Stem cuttings on which a bud grows to about 1 cm long are selected and the stem cuttings are cut to have one node and a length of 3 cm. The stem cuttings are treated with kresoxim-methyl, azoxystrobin, trifloxystrobin, fluoxastrobin, picoxystrobin, pyraclostrobin, dimoxystrobin, pyribencarb, metominostrobin, orysastrobin, enestrobin, pyraoxystrobin, or pyrametostrobin. Plastic pots are filled with soil and Amaranthus retroflexus is seeded therein. The stem cuttings of sugar cane treated with the fungicides are planted in the soil in the pots at a depth of 2 cm. […] The test pots are then placed in a greenhouse. The herbicidal efficacy and phytotoxicity are determined four weeks after the application of the herbicides.
Stem cuttings of sugar cane, 30 cm to 40 cm long, are placed in wet soil to stimulate germination. Stem cuttings on which a bud grows to about 1 cm long are selected and the stem cuttings are cut to have one node and a length of 3 cm. The stem cuttings are treated with azaconazole, bitertanol, bromuconazole, cyproconazole, difenoconazole, diniconazole, epoxiconazole, fenbuconazole, fluquinoconazole, flusilazole, flutriafol, hexaconazole, imibenconazole, ipconazole, metconazole, myclobutanil, penconazole, propiconazole, prothioconazole, simeconazole, tebuconazole, tetraconazole, triadimenol, triticonazole, fenarimol, nuarimol, pyrifenox, imazalil, oxpoconazole fumarate, peforazoate, prochloraz, or triflumizole. Plastic pots are filled with soil and Amaranthus retroflexus is seeded therein. The stem cuttings of sugar cane treated with the fungicides are planted in the soil in the pots at a depth of 2 cm. […] The test pots are then placed in a greenhouse. […]

sugar cane = assay: Pot test, herbicide sprayed on the soil surface after planting one-node stem cuttings: phytotoxicity
Procedure: as §1, §2
as §1, with “3 cm. The stem cuttings are treated with clothianidin, thiamethoxam, imidacloprid, dinotefuran, nitenpyram, acetamiprid, or thiacloprid. Plastic pots” for “3 cm. Plastic pots”, “sugar cane treated with the pesticides are planted” for “sugar cane are planted”
as §3
Stem cuttings of sugar cane, 30 cm to 40 cm long, are placed in wet soil to stimulate germination. Stem cuttings on which a bud grows to about 1 cm long are selected and the stem cuttings are cut to have one node and a length of 3 cm. The stem cuttings are treated with azaconazole, bitertanol, bromuconazole, cyproconazole, difenoconazole, diniconazole, epoxiconazole, fenbuconazole, fluquinoconazole, flusilazole, flutriafol, hexaconazole, imibenconazole, ipconazole, metconazole, myclobutanil, penconazole, propiconazole, prothioconazole, simeconazole, tebuconazole, tetraconazole, triadimenol, triticonazole, fenarimol, nuarimol, pyrifenox, imazalil, oxpoconazole fumarate, peforazoate, prochloraz, or triflumizole. Plastic pots are filled with soil and Amaranthus retroflexus is seeded therein. The stem cuttings of sugar cane treated with the fungicides are planted in the soil in the pots at a depth of 2 cm. […] The test pots are then placed in a greenhouse.
as §1, with “3 cm. The stem cuttings are treated with metalaxyl or metalaxyl-M. Plastic pots” for “3 cm. Plastic pots”

[1] = Example 5, cuttings treated with strobilurin fungicides (kresoxim-methyl, azoxystrobin etc.), soil surface spray on day of planting, four weeks after application

| Molecule | herbicidal efficacy (Amaranthus retroflexus) | phytotoxicity (sugar cane; [1]) | phytotoxicity (sugar cane; in vivo) |
| --- | --- | --- | --- |
| CC1(C)CON(Cc2ccccc2Cl)C1=O [clomazon] | the control effect against the weed can be observed |  |  |
| CCNc1nc(Cl)nc(NC(C)C)n1 [atrazine] | the control effect against the weed can be observed | no phytotoxicity problematic to sugar cane is observed |  |
| COC(=O)c1c(Cl)nn(C)c1S(=O)(=O)NC(=O)Nc1nc(OC)cc(OC)n1 [halosulfuron-methyl] | the control effect against the weed can be observed | no phytotoxicity problematic to sugar cane is observed |  |
| CCNc1nc(NC(C)C)nc(SC)n1 [ametryn] | the control effect against the weed can be observed |  | no phytotoxicity problematic to sugar cane is observed |
| Cc1cnc(C2=NC(=O)C(C)(C(C)C)N2)c(C(=O)O)c1 (centres unmarked) [imazapic] | the control effect against the weed can be observed |  | no phytotoxicity problematic to sugar cane is observed |
| COC(=O)c1ccc(I)cc1S(=O)(=O)[N-]C(=O)Nc1nc(C)nc(OC)n1.[Na+] [iodosulfuron-methyl-sodium] | the control effect against the weed can be observed | no phytotoxicity problematic to sugar cane is observed |  |
| CN(C)C(=O)Nc1ccc(Cl)c(Cl)c1 [diuron] | the control effect against the weed can be observed | no phytotoxicity problematic to sugar cane is observed |  |
| COc1c(Cl)ccc(Cl)c1C(=O)O [dicamba] | the control effect against the weed can be observed | no phytotoxicity problematic to sugar cane is observed |  |
| COc1cc(OC)nc(NC(=O)[N-]S(=O)(=O)c2ncccc2OCC(F)(F)F)n1.[Na+] [trifloxysulfuron-sodium] | the control effect against the weed can be observed | no phytotoxicity problematic to sugar cane is observed |  |
| bicyclopyrone | the control effect against the weed can be observed | no phytotoxicity problematic to sugar cane is observed |  |
| CCC(CC)Nc1c([N+](=O)[O-])cc(C)c(C)c1[N+](=O)[O-] [pendimethalin] | the control effect against the weed can be observed | no phytotoxicity problematic to sugar cane is observed |  |
| COc1c(Cl)ccc(Cl)c1C(=O)[O-].[Na+] [dicamba-sodium] | the control effect against the weed can be observed | no phytotoxicity problematic to sugar cane is observed |  |
| COc1c(Cl)ccc(Cl)c1C(=O)[O-].[K+] [dicamba-potassium] | the control effect against the weed can be observed | no phytotoxicity problematic to sugar cane is observed |  |
| CCCN(CCC)c1c([N+](=O)[O-])cc(C(F)(F)F)cc1[N+](=O)[O-] [trifluralin] | the control effect against the weed can be observed | no phytotoxicity problematic to sugar cane is observed |  |
| CCNc1nc(Cl)nc(NCC)n1 [simazine] | the control effect against the weed can be observed | no phytotoxicity problematic to sugar cane is observed |  |
| CNC.COc1c(Cl)ccc(Cl)c1C(=O)O [dicamba-dimethylamine] | the control effect against the weed can be observed | no phytotoxicity problematic to sugar cane is observed |  |
| CCc1cccc(C)c1N(C(=O)CCl)C(C)COC (centres unmarked) [metolachlor] | the control effect against the weed can be observed | no phytotoxicity problematic to sugar cane is observed |  |
| CCc1cccc(CC)c1N(COC)C(=O)CCl [alachlor] | the control effect against the weed can be observed | no phytotoxicity problematic to sugar cane is observed |  |
| CSc1nnc(C(C)(C)C)c(=O)n1N [metribuzin] | the control effect against the weed can be observed | no phytotoxicity problematic to sugar cane is observed |  |
| CCOc1ccccc1OS(=O)(=O)NC(=O)Nc1nc(OC)cc(OC)n1 [ethoxysulfuron] | the control effect against the weed can be observed |  | no phytotoxicity problematic to sugar cane is observed |
| CS(=O)(=O)c1cc(C(F)(F)F)ccc1C(=O)c1cnoc1C1CC1 [isoxaflutole] | the control effect against the weed can be observed |  | no phytotoxicity problematic to sugar cane is observed |
| CC(C)c1nn(C(=O)NC(C)(C)C)c(=O)n1N [amicarbazone] | the control effect against the weed can be observed | no phytotoxicity problematic to sugar cane is observed |  |
| COc1c(Cl)ccc(Cl)c1C(=O)O.NCCOCCO [dicamba-diglycolamine] | the control effect against the weed can be observed | no phytotoxicity problematic to sugar cane is observed |  |
| CCc1cccc(C)c1N(C(=O)CCl)[C@@H](C)COC [S-metolachlor] | the control effect against the weed can be observed | no phytotoxicity problematic to sugar cane is observed |  |
| CN(C)c1nc(=O)n(C2CCCCC2)c(=O)n1C [hexazinone] | the control effect against the weed can be observed |  | no phytotoxicity problematic to sugar cane is observed |
| CNC(=O)N(C)c1nnc(C(C)(C)C)s1 [tebuthiuron] | the control effect against the weed can be observed | no phytotoxicity problematic to sugar cane is observed |  |
| CS(=O)(=O)c1ccc(C(=O)C2C(=O)CCCC2=O)c([N+](=O)[O-])c1 [mesotrione] | the control effect against the weed can be observed | no phytotoxicity problematic to sugar cane is observed |  |
